The source of these data is ChEMBL document CHEMBL1201862, “PubChem BioAssay data set” (2004).

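Five concentrations, 48 hours, 96-well plates. GI50: concentration for 50% inhibition of growth.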 Calls of active or inactive are those of the source. Cut-off read from the data, not from the text of the source: active = GI50 up to about 1.1 µM and inactive = higher.

Some test systems named below: COLO 205; HCC 2998; HOP-62; HT-29; IGROV-1; NCI-H226; OVCAR-4; OVCAR-5; OVCAR-8; RPMI-8226; SF-268; SW-620; U-251; UACC-62.
Common to all, as to assay: inhibition of tumour cell growth, NCI panel, 48 h

Turning to `N#C/C(=C\c1ccc(O)c(O)c1)C(=O)NC1CCC(CC2CCC(NC(=O)/C(C#N)=C/c3ccc(O)c(O)c3)CC2)CC1` (stereo not given), the GI50 is 1.12 µM (inactive) in the test with COLO 205; 2.24 µM (inactive) with HCC 2998; 1.89 µM (inactive) in the test on HOP-62; 1.32 µM (inactive) in the test with HT-29; 1.71 µM (inactive) in the test on IGROV-1; 4.38 µM (inactive) with NCI-H226. Besides, the GI50 in the test with OVCAR-4 is 3.32 µM (inactive); in the test on OVCAR-5 it was 2.08 µM (inactive); in the test on OVCAR-8 it was 0.459 µM (active); with RPMI-8226, 0.693 µM (active); in the test on SF-268, 1.93 µM (inactive); in the test with SW-620 it was 0.465 µM (active). Also, the GI50 in the test on U-251 is 0.973 µM (active); in the test with UACC-62, 1.59 µM (inactive).
`COC(=O)C(CC(=O)Nc1ccc(Cl)c(Cl)c1)C(=O)C(=O)NC1C2CC3CC(C2)CC1C3` (stereo not given): the GI50 in the test with COLO 205, with HCC 2998, with HOP-62, in the test with HT-29, with IGROV-1 and in the test on NCI-H226 was > 100 µM (inactive) each time. Further, the GI50 in the test on OVCAR-4, in the test with OVCAR-5, in the test with OVCAR-8, with RPMI-8226, with SF-268 and in the test with SW-620 was > 100 µM (inactive) throughout. Also, the GI50 in the test with U-251 is > 100 µM (inactive); with UACC-62 it was 92.7 µM (inactive).
Turning to `Cc1c(/C=N/N=C/c2[nH]c(C(=O)OC(C)(C)C)c(C)c2C)[nH]c(C(=O)OC(C)(C)C)c1C`, the GI50 with COLO 205, in the test with HCC 2998, with HOP-62, in the test with HT-29, in the test on IGROV-1 and with NCI-H226 was > 100 µM (inactive) in each case. In addition, the GI50 was > 100 µM (inactive) with OVCAR-4; > 100 µM (inactive) in the test with OVCAR-5; 98.9 µM (inactive) with OVCAR-8; 90.6 µM (inactive) in the test with RPMI-8226; > 100 µM (inactive) with SF-268; > 100 µM (inactive) in the test with SW-620. Moreover, the GI50 with U-251 and in the test on UACC-62 was > 100 µM (inactive) each time.
For `O=C1C(=O)N(c2ccc(Cl)cc2)C(=O)/C(=N/c2cccc3c(=O)[nH][nH]c(=O)c23)C1c1nc2ccccc2o1` (stereo not given), the GI50 in the test on COLO 205, with HCC 2998, with HOP-62, in the test on HT-29, in the test on IGROV-1 and in the test on NCI-H226 was > 100 µM (inactive) each time. Moreover, the GI50 with OVCAR-4, with OVCAR-5, with OVCAR-8, with RPMI-8226, in the test on SF-268 and in the test on SW-620 was > 100 µM (inactive) in each case. Moreover, the GI50 in the test with U-251 and with UACC-62 was > 100 µM (inactive) in each case.
`CC1OC(OCC2OC(Oc3c(-c4ccc(O)cc4)oc4cc(O)cc(O)c4c3=O)C(OC3OCC(O)(CO)C3O)C(O)C2O)C(O)C(O)C1O` (stereo not given): the GI50 in the test on COLO 205 was 38.1 µM (inactive); in the test with HCC 2998, > 100 µM (inactive); in the test with HOP-62 it was > 100 µM (inactive); with HT-29 it was > 100 µM (inactive); with IGROV-1, > 100 µM (inactive); in the test with NCI-H226, > 100 µM (inactive). In addition, the GI50 with OVCAR-4 is > 100 µM (inactive); in the test on OVCAR-5, > 100 µM (inactive); in the test on OVCAR-8, > 100 µM (inactive); in the test on RPMI-8226 it was > 100 µM (inactive); with SF-268 it was > 100 µM (inactive); with SW-620 it was 79.1 µM (inactive). Besides, the GI50 is 44.6 µM (inactive) in the test with U-251 and > 100 µM (inactive) in the test on UACC-62.
